Test results as given in patent publication US20120276577A1, “Method for Determining the Susceptibility of a Cell Strain to Drugs” (ASSISTANCE PUBLIQUE - HOPITAUX DE PARIS, priority 2009, published 2012).
Read-outs that look alike come from different tables or passages of the source.

Experiments:
Candida albicans [1] = assay: MALDI-TOF MS minimal profile change concentration (MPCC) determination; assay type: cell-based; settings: for FCZ MPCCs: 15 h culture, MALDI-TOF MS
Procedure: Fluconazole (FCZ) pure powder (Sigma Chemical CO., Saint-Louis, Mo., USA) was dissolved in pure water. Serial dilutions of drug (concentration ranged from 256 to 0.25 μg/ml), made into RPMI 1640 medium (with glutamine and without bicarbonate, Invitrogen) buffered with MOPS (0.165M) (Sigma Chemical CO., Saint-Louis, Mo., USA) and adjusted to pH 7 with sodium hydroxide (5N), were dispensed in 600 μl aliquots into sterile 24-well flat-bottomed microtiter plates.
After cultivation during 48 h at 37° C. on Sabouraud agar medium, yeasts cells were transferred into RPMI 1640 medium (with glutamine but without bicarbonate, Invitrogen) buffered with MOPS (0.165M) (Sigma Chemical CO., Saint-Louis, Mo., USA), and adjusted to pH 7 with sodium hydroxide (5N). Then, 600 μl of RPMI with yeast (2.106 yeasts/imp were added to 600 μl of RPMI with FCZ into microtiter plates (final FCZ concentration ranged from 128 to 0.125 μg/ml), or in RPMI alone as negative control. Culture was performed in a 30° C. incubator for 15 hours, with continuous agitation.
Yeast extraction was performed as follows: • (1) samples were centrifuged and the supernatant removed before the pellet was washed twice in pure water; • (2) the pellet was then resuspended in 300 μL of pure water, and 900 μL of ethanol were then added; • (3) after another round of centrifugation, 50 μL of 70% formic acid and 50 μL pure acetonitrile were added to the residual pellet and subsequent solution was repeatedly and thoroughly vortexed before a final centrifugation. Each centrifugation was performed at 10 000 rpm for 10 minutes at room temperature.
The supernatant was distributed (0.5 μl droplet) in duplicate on a MALDI AnchorChip sample slide (Bruker-Daltonics, Bremen, Germany), then air-dried. The α-cyano-4-hydroxycinnamic acid (CHCA) matrix (Bruker-Daltonics), prepared at a concentration of 50 mg/ml in 50% acetonitrile and 50% water with 0.1% TFA, was sonicated for 5 min before being spotted (0.5 μl) over the dried sample. A DH5a Escherichia coil protein extract (Bruker-Daltonics) was deposited on the calibration spot of the Anchorchip for external calibration. MALDI analysis were performed on a Bruker Autoflex I MALDI TOF mass spectrometer with a nitrogen laser (337 nm) operating in linear mode with delayed extraction (260 ns) at 20 kV accelerating voltage. Each spectrum was automatically collected in the positive ion mode as an average of 500 laser shots (50 laser shots at 10 different spot positions). Laser energy was set just above the threshold for ion production. Mass range between 3,000 and 20,000 m/z (ratio mass/charge) was selected to collect the signals with the AutoXecute tool of flexControl acquisition software (Version 2.4; Bruker-Daltonics). Only peaks with a signal/noise ratio >3 were considered. […] For each cultivation condition, we collected mass spectra from 3 biological replicates and 2 technical replicates.
Data obtained from the flex control acquisition software were a set of lists of mass/charge peaks and corresponding intensities, one list for each spectrum. For each FCZ concentration (11 FCZ concentrations and without FCZ), 6 spectra, obtained from 3 biological replicates tested in duplicate, were collected, so the whole initial set of data consisted of 72 spectra.
Alignment was performed using a method based on the mean spectrum, using an approach similar to that recommended by Coombes et al. (Coombes K R, Baggerly K A, and Morris J S: Pre-Processing Mass Spectrometry Data. Fundamentals of Data Mining in Genomics and Proteomics, W Dubitzky, M Granzow, and D Berrar, eds. Kluwer, Boston, 79-99 (2007)).
The mean spectrum of the 72 spots was computed, a simple peak detection algorithm was run on the mean spectrum, and a selection of the final peak locations was based on the mean intensity of the peak. For each spectrum, the peaks corresponding to the final peak locations were retained for the statistical analysis. […]

Candida albicans [2] = settings: CLSI, cited from earlier work
[3] = C. albicans clinical isolate DSY281 (group A)
[4] = C. albicans clinical isolate DSY284 (group A)
[5] = C. albicans clinical isolate DSY289 (group F)
[6] = C. albicans clinical isolate DSY290 (group G)
[7] = C. albicans clinical isolate DSY292 (group G)
[8] = C. albicans clinical isolate DSY 294 (group B)
[9] = C. albicans clinical isolate DSY296 (group B)
[10] = C. albicans clinical isolate DSY347 (group F)
[11] = C. albicans clinical isolate DSY544 (group C)
[12] = C. albicans clinical isolate DSY2260 (group D)
[13] = C. albicans clinical isolate DSY2262 (group D)
[14] = C. albicans clinical isolate DSY2284 (group H)
[15] = C. albicans clinical isolate DSY2285 (group H)
[16] = C. albicans clinical isolate DSY2321 (group E)
[17] = C. albicans clinical isolate DSY2322 (group E)
[18] = C. albicans clinical isolate DYS775 (group C)
[19] = C. albicans reference strain ATCC 90028

## OC(Cn1cncn1)(Cn1cncn1)c1ccc(F)cc1F [FCZ, Fluconazole]
Candida albicans [1]; [3]
  FCZ MPCCs: 0.5 µg/mL
Candida albicans [1]; [4]
  FCZ MPCCs: 8 µg/mL
Candida albicans [1]; [5]
  FCZ MPCCs: 128 µg/mL
Candida albicans [1]; [6]
  FCZ MPCCs: 0.25 µg/mL
Candida albicans [1]; [7]
  FCZ MPCCs: 128 µg/mL
Candida albicans [1]; [8]
  FCZ MPCCs: 0.25 µg/mL
Candida albicans [1]; [9]
  FCZ MPCCs: 128 µg/mL
Candida albicans [1]; [10]
  FCZ MPCCs: 0.125 µg/mL
Candida albicans [1]; [11]
  FCZ MPCCs: 0.25 µg/mL
Candida albicans [1]; [12]
  FCZ MPCCs: 4 µg/mL
Candida albicans [1]; [13]
  FCZ MPCCs: 32 µg/mL
Candida albicans [1]; [14]
  FCZ MPCCs: 0.5 µg/mL
Candida albicans [1]; [15]
  FCZ MPCCs: 16 µg/mL
Candida albicans [1]; [16]
  FCZ MPCCs: 0.5 µg/mL
Candida albicans [1]; [17]
  FCZ MPCCs: 16 µg/mL
Candida albicans [1]; [18]
  FCZ MPCCs: 64 µg/mL
Candida albicans [1]; [19]
  FCZ MPCCs: 0.25 µg/mL
Candida albicans [1]; DSY2260 C. albicans, cultures exposed up to 2 μg/ml FCZ, 15 h
  mass spectrometry spectra compared with the control culture: indistinguishable
Candida albicans [2]; [3]
  FCZ MICs: 1 µg/mL
Candida albicans [2]; [4]
  FCZ MICs: 32 µg/mL
Candida albicans [2]; [5]
  FCZ MICs: 128 µg/mL
Candida albicans [2]; [6]
  FCZ MICs: 0.5 µg/mL
Candida albicans [2]; [7]
  FCZ MICs: 128 µg/mL
Candida albicans [2]; [8]
  FCZ MICs: 0.25 µg/mL
Candida albicans [2]; [9]
  FCZ MICs: 128 µg/mL
Candida albicans [2]; [10]
  FCZ MICs: 0.25 µg/mL
Candida albicans [2]; [11]
  FCZ MICs: 0.5 µg/mL
Candida albicans [2]; [12]
  FCZ MICs: 8 µg/mL
Candida albicans [2]; [13]
  FCZ MICs: 64 µg/mL
Candida albicans [2]; [14]
  FCZ MICs: 0.25 µg/mL
Candida albicans [2]; [15]
  FCZ MICs: 16 µg/mL
Candida albicans [2]; [16]
  FCZ MICs: 0.25 µg/mL
Candida albicans [2]; [17]
  FCZ MICs: 16 µg/mL
Candida albicans [2]; [18]
  FCZ MICs: 128 µg/mL
Candida albicans [2]; [19]
  FCZ MICs: 0.25 µg/mL
